The text below walks through data of paper PMC8821706, “Design and synthesis of novel nitrothiazolacetamide conjugated to different thioquinazolinone derivatives as anti-urease agents” (Scientific Reports, 2022).

Converted amounts (≈) assume the structure as drawn. Read-outs that look alike come from different tables or passages of the source.

For test [1], the system named is urease. Conditions: cited from earlier work.
In test [2] the target is T1, urease (Canavalia ensiformis, UniProt P07374). As to the kind of experiment: biochemical. In kind it is biochemical, jack bean. The conditions noted are these: for improvement in potency compared to thiourea: ratio of urease IC50 versus thiourea (positive control). The procedure: In vitro anti-urease activity of synthesized compounds, 8a-n were performed based on the […] method against urease compared with thiourea as the reference inhibitor.
T1 sequence (P07374 whole entry, looked up): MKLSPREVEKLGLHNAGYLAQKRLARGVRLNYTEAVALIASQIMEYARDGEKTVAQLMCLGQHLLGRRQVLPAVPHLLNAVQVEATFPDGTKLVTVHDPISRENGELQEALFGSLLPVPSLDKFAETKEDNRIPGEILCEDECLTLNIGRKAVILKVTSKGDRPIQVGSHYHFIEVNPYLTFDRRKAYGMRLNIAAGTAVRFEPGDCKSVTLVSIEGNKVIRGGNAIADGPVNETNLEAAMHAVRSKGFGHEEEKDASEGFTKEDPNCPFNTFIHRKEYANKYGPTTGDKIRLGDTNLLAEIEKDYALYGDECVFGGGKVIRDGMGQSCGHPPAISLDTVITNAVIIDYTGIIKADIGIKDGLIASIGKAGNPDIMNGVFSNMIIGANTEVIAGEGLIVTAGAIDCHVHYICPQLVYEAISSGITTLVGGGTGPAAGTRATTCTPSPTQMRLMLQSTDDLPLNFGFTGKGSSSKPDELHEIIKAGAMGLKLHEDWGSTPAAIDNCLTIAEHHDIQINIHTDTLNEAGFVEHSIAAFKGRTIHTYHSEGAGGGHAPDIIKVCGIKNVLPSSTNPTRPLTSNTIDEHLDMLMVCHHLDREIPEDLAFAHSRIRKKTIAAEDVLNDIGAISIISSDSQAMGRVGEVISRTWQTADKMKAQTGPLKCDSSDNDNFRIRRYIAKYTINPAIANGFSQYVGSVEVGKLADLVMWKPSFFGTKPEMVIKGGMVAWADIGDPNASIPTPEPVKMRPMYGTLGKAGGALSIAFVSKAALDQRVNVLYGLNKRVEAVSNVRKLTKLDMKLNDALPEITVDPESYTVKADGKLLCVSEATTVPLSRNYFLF
Urease inhibition effects of the synthesized compounds were determined according to the previously reported procedure[47]–[49]. 100 μL of the synthesized compounds at different concentrations was added to 850 μL of urea as substrate and 15 μL urease (0.135 units dissolved in PBS, pH 7.4). After 30 min, to 100 μL of the incubated solution, 500 μL solution I (5.0 g phenol and 25.0 mg sodium nitroprusside in 500 mL water) was added followed by the addition of 500 μL of solution II (2.5 g sodium hydroxide, 4.2 mL sodium hypochlorite, and 5% chlorine in 500 mL water) which was further incubated at 37 °C for 30 min. The absorbance was determined by measuring indophenols at 625 nm. Thiourea was used as the standard inhibitor for urease. The IC50 values for all synthesized compounds were calculated using GraphPad Prism software (GraphPad Software, Inc., San Diego, CA).

Test [3] has as its system clinical isolate of Proteus vulgaris. The experiment in a line: Antimicrobial activity, microbroth dilution (CLSI). It counts as cell-based. Conditions: tested 1 to 512 μg/ml. The procedure:
(§1) The antimicrobial activity of compounds against the microorganisms including C. neoformans (H99), and clinical isolate of P.vulgaris was assessed using the microbroth dilution method, as recommended by the Clinical and Laboratory Standards Institute (CLSI) (M07-A9 for bacteria; M27-A3 for yeasts). The compounds were diluted, and stock solutions of 20 mg/ml in DMSO were prepared. Mueller–Hinton Broth (HiMedia) and RPMI-1640 (Sigma) were prepared as recommended for antimicrobial susceptibility testing of bacterial and fungal strains, respectively. Two-fold dilutions were made in the range of 1–512 μg/ml for tested compounds. The microbroth dilution test was accomplished using a 96-well microtiter plate, containing growth control (yeast culture in broth media) and sterility control (broth media without fungal culture). The antimicrobial susceptibility test was accomplished by adding a cell suspension adjusted to the 0.5 McFarland standard (1–2 × 10^8 CFU/mL for bacterial strains; 1−5 × 10^6 cells/ml for yeast) to different concentrations of tested compounds. […] All experiments were performed in duplicates.
In general terms: Dilution methods test growth across graded concentrations, often in twofold steps.

The test system of test [4] is Cryptococcus neoformans (H99). The experiment in a line: Antimicrobial activity, microbroth dilution (CLSI). In kind it is cell-based. The conditions noted are these: tested 1 to 512 μg/ml. The method, then: as §1
The test system of another test is C. neoformans (H99). As to the kind of experiment: Anti-ureolytic activity, colorimetric microdilution in urea broth. It counts as cell-based. Conditions: Cryptococcus neoformans, 72 h; 560 nm, after three days; read-out: IC50 (µg/ml) of C. neoformans (anti-ureolytic effect). The procedure: (§2) The colorimetric microdilution technique using urea broth media (Merck, supplemented with glucose; pH = 6 for C. neoformans) was used to examine the urolytic activity of C. neoformans (H99), and clinical isolate of P.vulgaris treated with tested substances. Compounds in the concentration range of 1–512 μg/mL were exposed to ureolytic microorganisms, and the color of the medium was evaluated visually and spectroscopically at 560 nm after three days for C. neoformans and 24 h for P. vulgaris. The positive control, which included ureolytic bacteria but no drugs, changed color from yellow to dark pink or magenta. This shifts, allowing the determination of the inhibitory activity of compounds against urease activity of organisms even without a microtiter plate reader[57],[58].

In test [5] the test system is clinical isolate of P.vulgaris. The description is as above. Conditions: Proteus vulgaris; 560 nm, after 24 h; read-out: IC50 (µg/ml) of P. vulgaris (anti-ureolytic effect). In kind it is cell-based. The method, then:
as §2

Test [6] addresses T1, urease. As to the kind of experiment: Kinetic study of urease inhibition (Lineweaver–Burk). It counts as biochemical, jack bean. The procedure:
The mechanism of urease inhibition was investigated by enzyme kinetics, following the similar procedure of the urease inhibition assay. Lineweaver–Burk graphics were used to estimate the type of inhibition.
The kinetic study for the inhibition of urease by compound 8h was carried out using four different concentrations of inhibitor. For the kinetic study of urease, compound 8h was used at the concentrations of 0, 1, 2, and 4 μM. The Lineweaver–Burk reciprocal plot was constructed by plotting 1/V against 1/[S] at variable concentrations of the substrate urea (3.12–100 mM). The inhibition constant Ki was calculated by the plot of slopes versus the corresponding concentrations of the compound 8h.

For another test, the system named is H. pylori. On the set-up: method as in PMID 10394014. Conditions: cited from earlier work.

`O=C(Cn1c(Cc2ccc(Cl)cc2)nc2ccccc2c1=O)N/N=C/c1ccco1` [A]: in the test on urease [1] (2,3-disubstituted quinazolin-4(3H)-ones, Fig. 1A), the “IC50 (urease)” value was 1.55 ± 0.11 µg/mL (≈ 3.68 µM). In the case of `CCc1nc2ccccc2c(=O)n1CC(=O)NNC(=O)c1cc2cc(Br)ccc2oc1=O` [B], in the test on urease [1] (quinazolinone-coumarin derivatives, Fig. 1B), the “IC50 (urease)” value was 1.26 ± 0.07 µg/mL (≈ 2.53 µM). Regarding `CCNc1nnc(Cn2c(Cc3ccc(F)cc3)nc3ccccc3c2=O)s1` [C], in the test on urease [1] (quinazolin-4(3H)-ones, Fig. 1C), the “IC50 (urease)” value was 1.88 ± 0.17 µg/mL (≈ 4.75 µM).

In the case of `O=C(CSc1nc2ccccc2c(=O)n1-c1ccccc1)Nc1ncc([N+](=O)[O-])s1` [Compound 8a, N-(5-nitrothiazol-2-yl)-2-((4-oxo-3-phenyl-3,4-dihydroquinazolin-2-yl)thio)acetamide], at urease [2], the IC50 stood at 4.72 ± 0.26 µM and the “improvement in potency compared to thiourea” value is given as “around fivefold”. On to `O=C(CSc1nc2ccccc2c(=O)n1-c1ccc(Cl)cc1)Nc1ncc([N+](=O)[O-])s1` [Compound 8b, 2-((3-(4-chlorophenyl)-4-oxo-3,4-dihydroquinazolin-2-yl)thio)-N-(5-nitrothiazol-2-yl)acetamide], for which, at urease [2], the IC50 was 2.34 ± 0.19 µM. As to `O=C(CSc1nc2ccccc2c(=O)n1-c1ccc(Br)cc1)Nc1ncc([N+](=O)[O-])s1` [Compound 8c, 2-((3-(4-bromophenyl)-4-oxo-3,4-dihydroquinazolin-2-yl)thio)-N-(5-nitrothiazol-2-yl)acetamide], the MIC in test [3] and in test [4] was over 512 µg/mL throughout. The IC50 in the test with C. neoformans (H99) turned out to be 174 ± 4.9 µg/mL (≈ 335 µM); in test [5], 383 ± 5.1 µg/mL (≈ 739 µM); against urease [2] it was 2.22 ± 0.09 µM. In turn, `COc1ccc(-n2c(SCC(=O)Nc3ncc([N+](=O)[O-])s3)nc3ccccc3c2=O)cc1` [Compound 8d, 2-((3-(4-methoxyphenyl)-4-oxo-3,4-dihydroquinazolin-2-yl)thio)-N-(5-nitrothiazol-2-yl)acetamide] displayed an IC50 on urease [2] of 2.78 ± 0.32 µM. Consider `O=C(CSc1nc2ccccc2c(=O)n1Cc1ccccc1)Nc1ncc([N+](=O)[O-])s1` [Compound 8e, 2-((3-benzyl-4-oxo-3,4-dihydroquinazolin-2-yl)thio)-N-(5-nitrothiazol-2-yl)acetamide], for which the IC50 against urease [2] was determined as 3.83 ± 0.17 µM. On to `Cc1ccc(Cn2c(SCC(=O)Nc3ncc([N+](=O)[O-])s3)nc3ccccc3c2=O)cc1` [Compound 8f, 2-((3-(4-methylbenzyl)-4-oxo-3,4-dihydroquinazolin-2-yl)thio)-N-(5-nitrothiazol-2-yl)acetamide], for which the IC50 against urease [2] amounted to 3.5 ± 0.28 µM. For the compound `O=C(CSc1nc2ccccc2c(=O)n1Cc1cccnc1)Nc1ncc([N+](=O)[O-])s1` [Compound 8g, N-(5-nitrothiazol-2-yl)-2-((4-oxo-3-(pyridin-3-ylmethyl)-3,4-dihydroquinazolin-2-yl)thio)acetamide], the MIC in test [3] and in test [4] was over 512 µg/mL in each case. Besides, the results for the IC50 (in test [5]; against urease [2]) were over 512 µg/mL and 2.5 ± 0.37 µM, respectively.

Consider `O=C(CSc1nc2ccccc2c(=O)n1CCc1ccccc1)Nc1ncc([N+](=O)[O-])s1` [Compound 8h, N-(5-nitrothiazol-2-yl)-2-((4-oxo-3-phenethyl-3,4-dihydroquinazolin-2-yl)thio)acetamide], for which, at urease [6], the Ki (usually the dissociation constant of the complex between target and ligand, obtained from inhibition or displacement) was found to be 1.99 µM. Besides, the “inhibition pattern against urease” value at urease [6] (Lineweaver–Burk plot) is “uncompetitive”. Further, the MIC in test [3] and in test [4] was over 512 µg/mL throughout. Besides, the IC50 in the test on C. neoformans (H99) came to 129 ± 5.3 µg/mL (≈ 277 µM); in test [5] it was 172 ± 8.7 µg/mL (≈ 369 µM); on urease [2], 2.22 ± 0.44 µM. Moreover, the “improvement in potency compared to thiourea” value on urease [2] is “ten-fold”.

Take `CCCn1c(SCC(=O)Nc2ncc([N+](=O)[O-])s2)nc2ccccc2c1=O` [Compound 8i, N-(5-nitrothiazol-2-yl)-2-((4-oxo-3-propyl-3,4-dihydroquinazolin-2-yl)thio)acetamide]: the IC50 on urease [2] was 4.26 ± 0.46 µM. Same read-out and setting: next, `CC(C)n1c(SCC(=O)Nc2ncc([N+](=O)[O-])s2)nc2ccccc2c1=O` [Compound 8j, 2-((3-isopropyl-4-oxo-3,4-dihydroquinazolin-2-yl)thio)-N-(5-nitrothiazol-2-yl)acetamide]: 6.04 ± 0.57 µM; `CCCCn1c(SCC(=O)Nc2ncc([N+](=O)[O-])s2)nc2ccccc2c1=O` [Compound 8k, 2-((3-butyl-4-oxo-3,4-dihydroquinazolin-2-yl)thio)-N-(5-nitrothiazol-2-yl)acetamide]: 3.02 ± 0.12 µM.

As to `CC(C)Cn1c(SCC(=O)Nc2ncc([N+](=O)[O-])s2)nc2ccccc2c1=O` [Compound 8l, 2-((3-isobutyl-4-oxo-3,4-dihydroquinazolin-2-yl)thio)-N-(5-nitrothiazol-2-yl)acetamide], the IC50 on urease [2] was 8.43 ± 0.61 µM. Compound `C=CCn1c(SCC(=O)Nc2ncc([N+](=O)[O-])s2)nc2ccccc2c1=O` [Compound 8m, 2-((3-allyl-4-oxo-3,4-dihydroquinazolin-2-yl)thio)-N-(5-nitrothiazol-2-yl)acetamide] displayed an IC50 at urease [2] of 5.46 ± 0.38 µM. On the same count and under the same terms, next, `O=C(CSc1nc2ccccc2c(=O)n1C1CCCC1)Nc1ncc([N+](=O)[O-])s1` [Compound 8n, 2-((3-cyclopentyl-4-oxo-3,4-dihydroquinazolin-2-yl)thio)-N-(5-nitrothiazol-2-yl)acetamide]: 2.96 ± 0.45 µM. As for `Cc1cnc(NC(=O)CSc2nnc(-c3cccc([N+](=O)[O-])c3)o2)s1` [F], the IC50 in the test with urease [1] (thiazolbenzamide, Fig. 1F) is 2.17 ± 0.41 µM. As to `CC(=O)Oc1ccccc1C(=O)Nc1ncc([N+](=O)[O-])s1` [Nitazoxanide], in the test with H. pylori, the “MIC50 against H. pylori” value was 4 µg/mL (≈ 13 µM) and the “MIC90 against H. pylori” value is 8 µg/mL (≈ 26 µM).

Take `NC(N)=S` [Thiourea, reference compound]: on urease [2] (mean ± standard error of three independent experiments, read-out: IC50 (urease inhibitory activity)), the IC50 was determined as 22.5 ± 0.44 µM. Moreover, in the test with urease [1] (quinazolin-4(3H)-ones, Fig. 1C), the “IC50 (urease)” value is 15.06 µg/mL (≈ 198 µM). For `O=C(Nc1ncc([N+](=O)[O-])s1)c1ccccc1O` [Tizoxanide], in the test on H. pylori, the “MIC50 against H. pylori” value was 4 µg/mL (≈ 15.1 µM) and the “MIC90 against H. pylori” value was 8 µg/mL (≈ 30.2 µM).
